What was measured:
TGFβ3 = experiment: Immunohistochemistry of TGFβ3 in respiratory tract tissue of sodium hypochlorite aerosol-treated rabbits; format: in vivo, New Zealand albino rabbits
From the text: (§1) It is known that the factors TGF-α, TGF-β 1, TGF-β 2, TGF-β 3, SPARC, MMP-3; MMP-7, MMP-9, MMP-11, MMP-13 and MMP-14, TGF-β, NF-kB, EGF, MMP-9, VEGF and TNF-α which are produced by lung cells (pneumocytes, fibroblasts and vascular endothelial cells) and inflammatory cells (macrophages, lymphocytes and polymorphonuclear leukocytes) are involved in the pathophysiology and development of said respiratory tract diseases. […] Herein, 27 New Zealand albino rabbits (New Zealand White Rabbit) with an initial average weight about 3 kg were used in this example. All subjects were administered an aerosol of a solution consisting of a mixture of water and sodium hypochlorite (35 g sodium hypochlorite per liter of water) at a rate of 5 mL of said solution by inhalation three times a day for 7 days (days 1 to 7 of experimentation). Subsequently, from days 3 to 7, a group of 3 rabbits (Group 1) was administered an oral dose of 10 mg/kg body weight per day, another group of 3 rabbits (Group 2) was administered an oral dose of 40 mg/kg body weight per day, a third group (Group 3) was administered an oral dose of 80 mg/kg body weight per day and a fourth group (Group 4) was administered an oral dose of 100 mg/kg body weight per day. […] This mixture was administered as an aerosol by inhalation, also from days 3 to 7, to a group of 3 rabbits (group 5) at a dose of 0.05 mg/kg body weight per day, to another group of three rabbits (Group 6) at a dose of 0.1 mg/kg body weight per day, to another group of three rabbits (Group 7) at a dose of 0.2 mg/kg body weight per day and to another group of three rabbits (Group 8) at a dose of 0.4 mg/kg body weight per day. A placebo consisting only of olive oil was administered from days 3 to 7 to a control group of 3 rabbits (placebo group). In parallel, 3 rabbits were kept under identical conditions but were not administered any treatment nor the aforementioned sodium hypochlorite solution (control group). […] On day 7 of the experiment all animals were euthanized and necropsied. […] Samples were taken at the peripheral level of the lung parenchyma, just below the pleural surface. Tissue samples were also taken from the nasal cavity, pharynx, larynx and bronchi. Immunohistochemistry studies were performed for all samples to evaluate the levels of the markers TGF-α, TGF-β 1, TGF-β 2, TGF-β 3 SPARC, MMP-3; MMP-7, MMP-9, MMP-11, MMP-14, TGF-β, TNF-α and VEGF. In said immunohistochemistry studies, a sample of each sample was dehydrated by treatment with increasing concentrations of ethanol and finally xylene. Subsequently said dried samples were embedded in paraffin, thus creating a block. Said paraffin blocks were cut on a microtome to a thickness of 5 μm, and the resulting sections (slices) were placed on slides suitable for conducting immunohistochemistry techniques. Subsequently, the sections were deparaffinised by immersion in xylene and then rehydrated through immersion in a series of solutions containing decreasing concentrations of ethanol and, finally, water. […] The samples were then allowed to cool to room temperature over 10 minutes. Endogenous peroxidase activity was blocked by treatment with 3% hydrogen peroxide over 30 min at room temperature. […] In order to verify the expression of NK1 receptors, the cell samples were incubated in the presence of anti-NK1 antibodies ([…], Sigma-Aldrich) diluted 1:1000 at 4° C. overnight. After this time they were washed in 0.05M Tris buffer at room temperature. Subsequently, Envision System-HRP (Dako) reagents were added for 30 min at room temperature. Once this time had expired, the samples were again washed with 0.05 M Tris buffer, and immunoreactivity was visualized by light microscopy with a chromogenic solution with 3,3'-diaminobenzidine (DAB+; Dako, USA). In order to differentiate the cell nuclei, these were lightly stained with haematoxylin. Samples that were not incubated with the primary antibody, but wherein this was replaced by a non-immune serum were used as negative controls. […]

TNF-α = experiment: Immunohistochemistry of TNF-α in respiratory tract tissue of sodium hypochlorite aerosol-treated rabbits; format: in vivo, New Zealand albino rabbits
From the text: as §1

[1] = bronchial tissue, Group 1, oral 10 mg/kg per day
[2] = bronchial tissue, Group 2, oral 40 mg/kg per day
[3] = bronchial tissue, Group 3, oral 80 mg/kg per day
[4] = bronchial tissue, Group 4, oral 100 mg/kg per day
[5] = laryngeal tissue, Group 1, oral 10 mg/kg per day
[6] = laryngeal tissue, Group 2, oral 40 mg/kg per day
[7] = laryngeal tissue, Group 3, oral 80 mg/kg per day
[8] = laryngeal tissue, Group 4, oral 100 mg/kg per day
[9] = laryngeal tissue, Group 5, inhalation 0.05 mg/kg per day
[10] = laryngeal tissue, Group 6, inhalation 0.1 mg/kg per day
[11] = laryngeal tissue, Group 7, inhalation 0.2 mg/kg per day
[12] = laryngeal tissue, Group 8, inhalation 0.4 mg/kg per day
[13] = lung tissue, Group 1, oral 10 mg/kg per day
[14] = lung tissue, Group 2, oral 40 mg/kg per day
[15] = lung tissue, Group 3, oral 80 mg/kg per day
[16] = lung tissue, Group 4, oral 100 mg/kg per day
[17] = lung tissue, Group 5, inhalation 0.05 mg/kg per day
[18] = lung tissue, Group 6, inhalation 0.1 mg/kg per day
[19] = lung tissue, Group 7, inhalation 0.2 mg/kg per day
[20] = lung tissue, Group 8, inhalation 0.4 mg/kg per day
[21] = nasal cavity tissue, Group 1, oral 10 mg/kg per day
[22] = nasal cavity tissue, Group 2, oral 40 mg/kg per day
[23] = nasal cavity tissue, Group 3, oral 80 mg/kg per day
[24] = nasal cavity tissue, Group 4, oral 100 mg/kg per day
[25] = nasal cavity tissue, Group 5, inhalation 0.05 mg/kg per day
[26] = nasal cavity tissue, Group 6, inhalation 0.1 mg/kg per day
[27] = nasal cavity tissue, Group 7, inhalation 0.2 mg/kg per day
[28] = nasal cavity tissue, Group 8, inhalation 0.4 mg/kg per day
[29] = pharyngeal tissue, Group 1, oral 10 mg/kg per day
[30] = pharyngeal tissue, Group 2, oral 40 mg/kg per day
[31] = pharyngeal tissue, Group 3, oral 80 mg/kg per day
[32] = pharyngeal tissue, Group 4, oral 100 mg/kg per day
[33] = pharyngeal tissue, Group 5, inhalation 0.05 mg/kg per day
[34] = pharyngeal tissue, Group 6, inhalation 0.1 mg/kg per day
[35] = pharyngeal tissue, Group 7, inhalation 0.2 mg/kg per day
[36] = pharyngeal tissue, Group 8, inhalation 0.4 mg/kg per day

In the case of C[C@@H](OC1OCCN(Cc2nc(=O)[nH][nH]2)C1c1ccc(F)cc1)c1cc(C(F)(F)F)cc(C(F)(F)F)c1 (stereo in doubt) [Aprepitant, 5-([(2R,3S)-2-((R)-1-[3,5-bis(trifluoromethyl)phenyl]ethoxy)-3-(4-fluorophenyl)morpholino]methyl)-1H-1,2,4-triazol-3(2H)-one], the “Percent increase in TGFβ3 with respect to the control group” value (from here on “Percent increase in TGFβ3”) (TGFβ3; [1]) is reported as 672.56%, the “Percent increase in TGFβ3” value (TGFβ3; [2]) is reported as 452.45% and the “Percent increase in TGFβ3” value (TGFβ3; [3]) is reported as 345.32%. The “Percent increase in TGFβ3” value (TGFβ3; [4]) was 236.12%, the “% Med G5/C: percent increase in marker TGFβ with respect to the control group” value (TGFβ3; bronchial tissue, Group 5) was 604.34% and the “% Med G6/C: percent increase in marker TGFβ with respect to the control group” value (TGFβ3; bronchial tissue, Group 6) was 439.53%. For the same compound, the “% Med G7/C: percent increase in marker TGFβ with respect to the control group” value (TGFβ3; bronchial tissue, Group 7) was 234.56%, the “% Med G8/C: percent increase in marker TGFβ with respect to the control group” value (TGFβ3; bronchial tissue, Group 8) was 179.19% and the “Percent increase in TGFβ3” value (TGFβ3; [5]) was 1,234.56%. For the same compound, the “Percent increase in TGFβ3” value (TGFβ3; [6]) was 1,009.78%, the “Percent increase in TGFβ3” value (TGFβ3; [7]) was 899.98% and the “Percent increase in TGFβ3” value (TGFβ3; [8]) was 567.89%. For the same compound, the “Percent increase in TGFβ3” value (TGFβ3; [9]) was 1,183.45%, the “Percent increase in TGFβ3” value (TGFβ3; [10]) was 702.33% and the “Percent increase in TGFβ3” value (TGFβ3; [11]) was 305.32%. The “Percent increase in TGFβ3” value (TGFβ3; [12]) was 132.22%, the “Percent increase in TGFβ3” value (TGFβ3; [13]) was 835.84% and the “Percent increase in TGFβ3” value (TGFβ3; [14]) was 655.71%. For the same compound, the “Percent increase in TGFβ3” value (TGFβ3; [15]) was 496.55%, the “Percent increase in TGFβ3” value (TGFβ3; [16]) was 374.47% and the “Percent increase in TGFβ3” value (TGFβ3; [17]) was 775.37%. For the same compound, the “Percent increase in TGFβ3” value (TGFβ3; [18]) was 427.90%, the “Percent increase in TGFβ3” value (TGFβ3; [19]) was 215.59% and the “Percent increase in TGFβ3” value (TGFβ3; [20]) was 169.46%. The “Percent increase in TGFβ3” value (TGFβ3; [21]) was 2,813.99%, the “Percent increase in TGFβ3” value (TGFβ3; [22]) was 2,128.24% and the “Percent increase in TGFβ3” value (TGFβ3; [23]) was 1,451.25%. For the same compound, the “Percent increase in TGFβ3” value (TGFβ3; [24]) was 1,188.89%, the “Percent increase in TGFβ3” value (TGFβ3; [25]) was 2,168.67% and the “Percent increase in TGFβ3” value (TGFβ3; [26]) was 1,051.06%. The “Percent increase in TGFβ3” value (TGFβ3; [27]) was 482.03%, the “Percent increase in TGFβ3” value (TGFβ3; [28]) was 158.62% and the “Percent increase in TGFβ3” value (TGFβ3; [29]) was 967.72%. The “Percent increase in TGFβ3” value (TGFβ3; [30]) was 879.34%, the “Percent increase in TGFβ3” value (TGFβ3; [31]) was 659.59% and the “Percent increase in TGFβ3” value (TGFβ3; [32]) was 456.45%. For the same compound, the “Percent increase in TGFβ3” value (TGFβ3; [33]) was 879.45%, the “Percent increase in TGFβ3” value (TGFβ3; [34]) was 543.45% and the “Percent increase in TGFβ3” value (TGFβ3; [35]) was 309.45%. For the same compound, the “Percent increase in TGFβ3” value (TGFβ3; [36]) was 112.43%, the “Percent increase in TNF-α with respect to the control group” value (shortened to “Percent increase in TNF-α”) (TNF-α; [1]) was 789.45% and the “Percent increase in TNF-α” value (TNF-α; [2]) was 580.67%. For the same compound, the “Percent increase in TNF-α” value (TNF-α; [3]) was 467.45%, the “Percent increase in TNF-α” value (TNF-α; [4]) was 356.34% and the “% Med G5/C: percent increase in marker TNF-α with respect to the control group” value (TNF-α; bronchial tissue, Group 5) was 673.34%. For the same compound, the “% Med G6/C: percent increase in marker TNF-α with respect to the control group” value (TNF-α; bronchial tissue, Group 6) was 451.23%, the “% Med G7/C: percent increase in marker TNF-α with respect to the control group” value (TNF-α; bronchial tissue, Group 7) was 325.21% and the “% Med G8/C: percent increase in marker TNF-α with respect to the control group” value (TNF-α; bronchial tissue, Group 8) was 201.23%. For the same compound, the “Percent increase in TNF-α” value (TNF-α; [5]) was 1,078.45%, the “Percent increase in TNF-α” value (TNF-α; [6]) was 809.99% and the “Percent increase in TNF-α” value (TNF-α; [7]) was 708.73%. The “Percent increase in TNF-α” value (TNF-α; [8]) was 509.87%, the “Percent increase in TNF-α” value (TNF-α; [9]) was 879.34% and the “Percent increase in TNF-α” value (TNF-α; [10]) was 456.34%. The “Percent increase in TNF-α” value (TNF-α; [11]) was 323.12%, the “Percent increase in TNF-α” value (TNF-α; [12]) was 150.34% and the “Percent increase in TNF-α” value (TNF-α; [13]) was 859.73%. The “Percent increase in TNF-α” value (TNF-α; [14]) was 685.01%, the “Percent increase in TNF-α” value (TNF-α; [15]) was 607.15% and the “Percent increase in TNF-α” value (TNF-α; [16]) was 463.11%. The “Percent increase in TNF-α” value (TNF-α; [17]) was 980.46%, the “Percent increase in TNF-α” value (TNF-α; [18]) was 470.69% and the “Percent increase in TNF-α” value (TNF-α; [19]) was 218.38%. For the same compound, the “Percent increase in TNF-α” value (TNF-α; [20]) was 151.28%, the “Percent increase in TNF-α” value (TNF-α; [21]) was 1,411.41% and the “Percent increase in TNF-α” value (TNF-α; [22]) was 842.93%. For the same compound, the “Percent increase in TNF-α” value (TNF-α; [23]) was 658.65%, the “Percent increase in TNF-α” value (TNF-α; [24]) was 418.29% and the “Percent increase in TNF-α” value (TNF-α; [25]) was 1,495.60%. The “Percent increase in TNF-α” value (TNF-α; [26]) was 736.83%, the “Percent increase in TNF-α” value (TNF-α; [27]) was 151.81% and the “Percent increase in TNF-α” value (TNF-α; [28]) was 122.23%. For the same compound, the “Percent increase in TNF-α” value (TNF-α; [29]) was 1,357.32%, the “Percent increase in TNF-α” value (TNF-α; [30]) was 987.63% and the “Percent increase in TNF-α” value (TNF-α; [31]) was 789.45%. For the same compound, the “Percent increase in TNF-α” value (TNF-α; [32]) was 418.29%, the “Percent increase in TNF-α” value (TNF-α; [33]) was 1,532.34% and the “Percent increase in TNF-α” value (TNF-α; [34]) was 989.36%. For the same compound, the “Percent increase in TNF-α” value (TNF-α; [35]) was 298.67% and the “Percent increase in TNF-α” value (TNF-α; [36]) was 167.34%.

Reference: patent US20170290774A1, “NEUROKININ-1 RECEPTOR ANTAGONIST COMPOSITION FOR TREATMENT OF DISEASES AND CONDITIONS OF THE RESPIRATORY TRACT” (PLUS VITECH, S.L., priority 2014, published 2017)
